Results on 6 compounds are retold here after PMC8130918 (PLoS Pathogens, 2021).

For test [1], the target named is RSV MTase-CTD (Human respiratory syncytial virus A, UniProt P28887). Briefly: MTase activity inhibition, filter-binding assay (3H-methyl transfer from SAM to GpppG-RSV9 RNA). The format is biochemical. To be noted: for IC50: 25 nM RSV MTase-CTD, 0.7 μM GpppG-RSV9 RNA, 2 μM SAM, pH 7.5, 30°C, Hill slope curve-fitting.
The target in test [2] is RSV L-P complex (Human respiratory syncytial virus A, UniProt P28887). Nature of the test: MTase activity inhibition, filter-binding assay with the RSV L-P complex. The format is biochemical, human RSV (strain A2). To be noted: 60 nM RSV L-P complex, 1.8 μM GpppG-RSV9 RNA, 0.17 μM SAM and 0.8 μM 3H-SAM, pH 7.5, 30°C.
Chain of RSV L-P complex (P03421 whole entry): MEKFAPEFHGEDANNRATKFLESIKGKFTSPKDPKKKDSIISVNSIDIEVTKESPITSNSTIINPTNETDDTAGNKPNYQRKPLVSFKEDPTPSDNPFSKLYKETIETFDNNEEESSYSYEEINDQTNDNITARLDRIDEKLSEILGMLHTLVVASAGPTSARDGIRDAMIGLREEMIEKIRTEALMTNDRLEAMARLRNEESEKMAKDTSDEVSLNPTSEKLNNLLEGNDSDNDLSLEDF
Chain of RSV L-P complex (P28887 whole entry): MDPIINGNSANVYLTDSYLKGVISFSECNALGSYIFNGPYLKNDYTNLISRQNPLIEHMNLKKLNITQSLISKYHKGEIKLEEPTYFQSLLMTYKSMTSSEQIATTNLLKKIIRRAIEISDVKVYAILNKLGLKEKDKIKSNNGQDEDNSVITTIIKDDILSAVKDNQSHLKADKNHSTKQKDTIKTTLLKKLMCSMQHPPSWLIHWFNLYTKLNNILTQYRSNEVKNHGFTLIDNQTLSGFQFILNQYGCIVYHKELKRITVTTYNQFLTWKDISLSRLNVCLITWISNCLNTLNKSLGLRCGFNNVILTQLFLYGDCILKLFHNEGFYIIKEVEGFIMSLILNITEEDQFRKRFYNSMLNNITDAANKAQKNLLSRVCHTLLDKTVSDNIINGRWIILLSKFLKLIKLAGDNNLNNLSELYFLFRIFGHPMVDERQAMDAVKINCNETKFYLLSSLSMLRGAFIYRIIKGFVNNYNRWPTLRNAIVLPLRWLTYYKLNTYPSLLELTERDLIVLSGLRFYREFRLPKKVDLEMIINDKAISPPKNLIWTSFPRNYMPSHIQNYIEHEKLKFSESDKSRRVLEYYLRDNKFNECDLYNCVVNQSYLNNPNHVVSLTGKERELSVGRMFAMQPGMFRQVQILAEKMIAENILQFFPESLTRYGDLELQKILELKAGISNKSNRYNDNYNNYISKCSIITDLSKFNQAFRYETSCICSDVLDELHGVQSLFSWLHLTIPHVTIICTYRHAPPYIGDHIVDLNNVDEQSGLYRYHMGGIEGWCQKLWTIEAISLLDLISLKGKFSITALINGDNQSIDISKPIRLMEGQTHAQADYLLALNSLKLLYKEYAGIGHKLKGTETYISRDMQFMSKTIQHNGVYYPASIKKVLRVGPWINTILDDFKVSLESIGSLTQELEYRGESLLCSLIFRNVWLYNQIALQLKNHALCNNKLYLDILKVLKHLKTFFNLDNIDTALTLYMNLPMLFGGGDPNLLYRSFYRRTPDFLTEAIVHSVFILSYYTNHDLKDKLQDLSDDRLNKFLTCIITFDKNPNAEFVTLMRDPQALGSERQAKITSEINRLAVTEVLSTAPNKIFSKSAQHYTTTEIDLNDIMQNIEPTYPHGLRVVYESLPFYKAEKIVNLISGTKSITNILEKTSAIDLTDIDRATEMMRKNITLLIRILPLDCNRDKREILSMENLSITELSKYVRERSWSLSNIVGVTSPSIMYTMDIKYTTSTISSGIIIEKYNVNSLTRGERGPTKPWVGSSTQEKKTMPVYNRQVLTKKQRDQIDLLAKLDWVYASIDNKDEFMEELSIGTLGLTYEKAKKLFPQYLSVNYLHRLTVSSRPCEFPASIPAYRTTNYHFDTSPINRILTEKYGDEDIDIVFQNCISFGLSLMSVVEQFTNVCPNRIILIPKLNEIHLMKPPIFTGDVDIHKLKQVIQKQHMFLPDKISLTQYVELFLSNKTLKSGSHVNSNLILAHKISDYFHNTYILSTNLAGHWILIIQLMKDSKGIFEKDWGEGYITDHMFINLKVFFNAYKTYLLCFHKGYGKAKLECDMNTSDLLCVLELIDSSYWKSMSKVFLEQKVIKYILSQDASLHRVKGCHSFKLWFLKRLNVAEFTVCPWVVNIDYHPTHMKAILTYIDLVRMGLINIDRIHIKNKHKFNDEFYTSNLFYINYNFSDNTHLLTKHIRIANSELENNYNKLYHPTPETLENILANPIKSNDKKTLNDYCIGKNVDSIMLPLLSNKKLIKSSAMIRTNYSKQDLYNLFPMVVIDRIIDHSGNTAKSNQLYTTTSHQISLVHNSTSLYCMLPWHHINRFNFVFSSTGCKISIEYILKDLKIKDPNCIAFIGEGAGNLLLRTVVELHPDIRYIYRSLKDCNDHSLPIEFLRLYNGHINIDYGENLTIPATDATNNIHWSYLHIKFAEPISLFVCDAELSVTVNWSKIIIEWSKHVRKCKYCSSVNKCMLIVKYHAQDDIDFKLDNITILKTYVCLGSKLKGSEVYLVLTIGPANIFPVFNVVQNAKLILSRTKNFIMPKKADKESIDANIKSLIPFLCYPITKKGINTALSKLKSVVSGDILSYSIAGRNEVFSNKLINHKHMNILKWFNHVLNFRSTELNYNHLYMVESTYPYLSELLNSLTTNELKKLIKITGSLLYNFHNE
Test [3] concerns VSV. To be noted: BHK cells, plaque assay; read-out: half maximal effective concentration (EC50), VSV replication; cited from earlier work.
The subject of test [4] is RSV. Briefly: Antiviral activity in cellular assay, replication of RSV in HeLa cells. The format is cell-based, Respiratory syncytial virus. To be noted: before toxicity.

The IC50 is the concentration needed to halve the response being measured. A low value points to inhibition by little substance.

Where “and” joins values, the source holds several entries; their conditions need not be identical. Equal values may be shown once.

Chain of RSV MTase-CTD (P28887 1755-2165): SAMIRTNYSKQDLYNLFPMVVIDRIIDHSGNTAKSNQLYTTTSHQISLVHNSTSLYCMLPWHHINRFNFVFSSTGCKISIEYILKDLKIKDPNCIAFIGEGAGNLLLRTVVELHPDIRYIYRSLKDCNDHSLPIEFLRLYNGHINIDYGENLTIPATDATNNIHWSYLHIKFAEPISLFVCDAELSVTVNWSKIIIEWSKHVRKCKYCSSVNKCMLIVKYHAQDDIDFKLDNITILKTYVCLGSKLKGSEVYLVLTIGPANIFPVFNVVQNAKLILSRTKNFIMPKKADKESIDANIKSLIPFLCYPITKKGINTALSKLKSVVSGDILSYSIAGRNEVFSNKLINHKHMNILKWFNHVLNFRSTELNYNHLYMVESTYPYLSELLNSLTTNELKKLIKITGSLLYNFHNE

For the compound `Nc1nc2c(ncn2[C@@H]2O[C@H](COP(=O)(O)OP(=O)(O)OP(=O)(O)OC[C@H]3O[C@@H](n4cnc5c(N)ncnc54)[C@H](O)[C@@H]3O)[C@@H](O)[C@H]2O)c(=O)[nH]1` [GpppA], the “inhibitory activity on RSV MTase-CTD compared with GpppG” value in test [1] is reported as “lower inhibitory activity”.

As to `Nc1nc2c(ncn2[C@@H]2O[C@H](COP(=O)(O)OP(=O)(O)OP(=O)(O)OC[C@H]3O[C@@H](n4cnc5c(=O)[nH]c(N)nc54)[C@H](O)[C@@H]3O)[C@@H](O)[C@H]2O)c(=O)[nH]1` [GpppG], the “inhibition of the activity of the RSV MTase-CTD” value in test [1] ([…], methylation of GpppG-RSV9 RNA by FBA, 50 µM) stood at 50%.

Turning to `Nc1ncnc2c1ncn2[C@@H]1O[C@H](CSCC[C@H](N)C(=O)O)[C@@H](O)[C@H]1O` [SAH, S-adenosyl homocysteine], the IC50 in test [1] (3 h) was 24.7 µM and ~24.7 µM; in test [2] it was 37.8 µM and ~37.8 µM.

Consider `Cn1c[n+]([C@@H]2O[C@H](COP(=O)(O)OP(=O)([O-])O)[C@@H](O)[C@H]2O)c2nc(N)[nH]c(=O)c21` [^mGDP], for which, in test [1], the “inhibitory activity on RSV MTase-CTD compared with GpppG” value is given as “lower inhibitory activity”.

As for `C[n+]1cn(C2OC(COP(=O)([O-])OP(=O)(O)OP(=O)(O)OCC3OC(n4cnc5c(N)ncnc54)C(O)C3O)C(O)C2O)c2nc(N)[nH]c(=O)c21` (stereo not shown) [^mGpppA], the “inhibitory activity on RSV MTase-CTD compared with GpppG” value in test [1] was “lower inhibitory activity”.

On to `Nc1ncnc2c1ncn2[C@@H]1O[C@H](C[C@@H](N)CC[C@H](N)C(=O)O)[C@@H](O)[C@H]1O` [sinefungin], for which the IC50 in test [1] is 6.4 µM and ~6.4 µM; in test [2] it was 9.8 µM and ~9.8 µM. In addition, the EC50 in test [3] is 220 µM. Besides, the “inhibition of replication of RSV” value in test [4] was “did not show inhibition activity”.
